Experimental data: PubChem BioAssay AID651579 (Sanford-Burnham Center for Chemical Genomics, 2012)
The source made the active and inactive calls. No rule for the calls is given here.

System: C. elegans hsp-16.2 reporter, heat-shock counterscreen
Assay: inhibitors of heat-induced hsp-16.2 expression – whole organism, C. elegans, counter-screen for SKN-1 inhibitor project, dose response (AID 651579)

SMILES | IC50
Fc1ccc(-c2cnc(-c3cccs3)o2)cc1 | > 64 µM (inactive)
COc1cc(CNC(C)(C)CO)cc(Br)c1OCc1ccc(Cl)cc1 | > 64 µM (inactive)
Clc1ccc(C=Cc2ccccn2)cc1 | > 64 µM (inactive)
CCOc1ccc(-c2nc(-c3cccnc3)no2)cc1 | > 64 µM (inactive)
Clc1ccc2nc(-c3ccc(Br)s3)cn2c1 | 15.9 µM
O=[N+]([O-])c1ccc(OCc2cnc(Cl)s2)cc1 | 42.3 µM
c1ccc2sc(SCc3ccc(-c4nnco4)cc3)nc2c1 | > 64 µM (inactive)
Cc1ccc(-c2noc(-c3cccs3)n2)cc1 | > 64 µM (inactive)
COc1ccc2c(c1)OC/C(=C/c1cccs1)C2=O | > 64 µM (inactive)
O=C(Nc1nc2c(ccc3ccccc32)s1)c1ccco1 | > 64 µM (inactive)
O=C(Nc1nc(-c2ccc(Cl)s2)cs1)c1ccco1 | > 64 µM (inactive)
CSc1cccc(NC(=O)c2cccc3cccnc23)c1 | 46.3 µM
O=[N+]([O-])c1ccc(COc2ccc(CN3CCCC3)cc2)cc1 | > 64 µM (inactive)
O=c1cc(-c2ccc(F)cc2)oc2ccccc12 | > 64 µM (inactive)
Cc1ccc(Nc2nc(-c3cccs3)cs2)nc1 | 13.6 µM
CCc1nc2c(OCc3ccc(C(F)(F)F)cc3)cccn2c1N(C)C(=O)c1ccncc1 | 49.9 µM
O=C(C=Cc1cccs1)c1ccc(Cl)s1 | > 64 µM (inactive)
Brc1ccc(CSc2nnc(-c3ccco3)o2)cc1 | > 64 µM (inactive)
CCCCOc1ccc(C(=O)OC2CC(C)N(C)CC2C)cc1 (centres undefined) | > 64 µM (inactive)
O=[N+]([O-])c1ccc2nc(-c3ccccc3)oc2c1 | > 64 µM (inactive)
Fc1ccc(-c2csc(Nc3ccccn3)n2)cc1 | > 64 µM (inactive)
O=[N+]([O-])c1ccc2cn(-c3ccccc3)nc2c1 | > 64 µM (inactive)
O=C(Nc1nc(-c2ccc(Cl)s2)cs1)c1cccs1 | > 64 µM (inactive)
O=C(NCc1ccncc1)c1ccc(-c2ccc(F)c(F)c2)c2ccoc12 | > 64 µM (inactive)
CN(C)C(CNC(=O)CCc1nc2cc(Cl)ccc2n(Cc2ccccc2)c1=O)c1ccccc1 (centres undefined) | > 64 µM (inactive)
COc1cc(CNC2CCCC2)cc(Cl)c1OCc1ccc(F)cc1 | 42.7 µM

SMILES | IC50
O=C(/C=C/Nc1ccc(Br)cc1F)c1ccco1 | > 64 µM (inactive)
CCCn1nc2cc(C(=O)NCc3ccc(OC(F)(F)F)cc3)ccc2c1OCC | > 64 µM (inactive)
CCN(CC)c1ccc(/C=C2/C(=O)c3ccc(C(=O)O)cc3C2=O)cc1 | > 64 µM (inactive)
N=C1C=CC(=C(c2ccc(N)cc2)c2ccc(N)cc2)C=C1 | > 64 µM (inactive)
CC/C(=C\c1ccc(Cl)cc1)c1ccncc1 | > 64 µM (inactive)
Clc1ccc(-c2nnc(-c3ccccc3)o2)c(Cl)c1 | > 64 µM (inactive)
Cc1c(N2C(=O)/C(=C\c3ccc(N(C)C)cc3)N(C)C2=S)c(=O)n(-c2ccccc2)n1C | > 64 µM (inactive)
Fc1ccc(COc2ccc(-c3nnco3)cc2)c(Cl)c1 | > 64 µM (inactive)
O=C(/C=C/Nc1ccc(F)cc1F)c1cccs1 | 21.4 µM
Brc1ccc(-c2nnc(-c3ccco3)o2)cc1 | > 64 µM (inactive)
O=[N+]([O-])c1ccc(NCc2ccc(Cl)cc2)nc1 | > 64 µM (inactive)
Cc1nc2ccccc2cc1OCc1ccc(F)cc1 | > 64 µM (inactive)
Cc1ccc(N=C/C(C(=O)C(F)(F)F)=C(\O)c2ccco2)cc1Cl | 37.7 µM
O=C(CC(O)(C(F)(F)F)C(F)(F)F)Nc1ccc(Cl)c(Cl)c1 | > 64 µM (inactive)
CCOC(=O)Nc1nc(-c2ccc(F)cc2F)cs1 | 47.7 µM
CN1CCN(c2ccc(NC(=O)c3ccc(Oc4ccccc4)cc3)cc2)CC1 | > 64 µM (inactive)
Fc1ccc(-n2nnc(-c3cccnc3Cl)n2)cc1 | > 64 µM (inactive)
Cc1ccc2nc(-c3ccc(NC(=S)NC4CC(C)(C)NC(C)(C)C4)cc3)sc2c1 | > 64 µM (inactive)
Cc1ccc(CSc2nnc(-c3ccco3)o2)cc1 | 30.6 µM
Clc1ccc(C#Cc2cccnc2)cc1 | 2.57 µM
Cn1c(=O)c2c(-c3ccccc3)n(-c3ccc(N)cc3)cc2n(C)c1=O | 3.62 µM
CCOC(=O)c1c(-c2ccc(-c3ccccc3)cc2)csc1NC(=O)CNCCN(C)C | > 64 µM (inactive)
CCc1ccc(-c2nc(-c3ccncc3)no2)cc1 | 33.5 µM
O=C(Nc1ccc(CN2CCOCC2)cc1)c1cc2ccccc2o1 | 4.25 µM
C(=C\c1nnc(-c2cccs2)o1)/c1ccccc1 | > 64 µM (inactive)
O=C(/C=C/c1ccc(Br)cc1)c1ccc(NC2=NCCCS2)cc1 | > 64 µM (inactive)

SMILES | IC50
CCOc1cc(CNC2CCCC2)cc(Cl)c1OCc1ccccc1 | > 64 µM (inactive)
Clc1ccc(-c2nnc(-c3ccco3)o2)cc1 | 2.68 µM
C(=C\c1nc(-c2ccncc2)no1)/c1ccccc1 | > 64 µM (inactive)
CCOc1cc(CNCCSc2nnnn2C)cc(Br)c1OCc1ccc(F)cc1 | > 64 µM (inactive)
O=C(/C=C/Nc1ccc(F)c(F)c1)c1cccs1 | > 64 µM (inactive)
CCN(CC)c1ccc(/C=C2\C(=O)c3ccc(C(=O)O)cc3C2=O)cc1 | > 64 µM (inactive)
Cc1oc(-c2ccc(-c3ccccc3)cc2)nc1CN(C)C1CCOC1 (centres undefined) | > 64 µM (inactive)
FCCCOc1ccc(-c2nccc(-c3ccccn3)n2)cc1 | > 64 µM (inactive)
COc1ccc(C(=O)Nc2nc(-c3cccs3)cs2)cc1 | > 64 µM (inactive)
c1ccc(-c2ccc(-n3ccnc3)cc2)cc1 | 48.4 µM
Fc1ccc(-c2csc(-c3ccncc3)n2)cc1 | > 64 µM (inactive)
c1ccc(-c2csc(Nc3ccccn3)n2)cc1 | > 64 µM (inactive)
O=C(Nc1ccc(Cl)cn1)c1ccccc1F | > 64 µM (inactive)
c1ccc(Nc2nc(-c3cccs3)cs2)nc1 | > 64 µM (inactive)
Brc1ccc(CSc2nnc(-c3cccnc3)o2)cc1 | 45.4 µM
Clc1ccccc1-c1nnc(-c2ccccc2Cl)o1 | > 64 µM (inactive)
O=C(N=C1N=C2C=CC(Br)=CN2Cc2ccccc21)c1ccc([N+](=O)[O-])cc1[N+](=O)[O-] | > 64 µM (inactive)
CSc1ccc(-c2cc(=O)c3ccccc3o2)cc1 | > 64 µM (inactive)
O=C(c1cccs1)c1ccc(-c2cccs2)s1 | > 64 µM (inactive)
CC(C)(C)N=C1NN=C(c2ccc(Cl)cc2)CS1 | > 64 µM (inactive)
O=C(Nc1ccc(OC(F)F)c(Cl)c1)c1ccccn1 | > 64 µM (inactive)
Brc1ccc(-c2nc(-c3ccccc3)no2)o1 | > 64 µM (inactive)
c1ccc(-c2nc3cc4ccccc4cc3[nH]2)nc1 | 5.91 µM
O=C(C=Cc1ccccc1)CC(c1ccccc1)N1CCOCC1 (centres undefined) | > 64 µM (inactive)
Fc1ccc(Cn2nnc(-c3ccc(CN4CCOCC4)cc3)n2)cc1 | 4.88 µM
CC1=NN(c2ccccc2)C(=O)/C1=C\C=C1/N(C)c2ccccc2C1(C)C | > 64 µM (inactive)

SMILES | IC50
O=C(Nc1nc(-c2ccc(Cl)s2)cs1)c1ccccc1 | 22.6 µM
CCc1ccc(C(=O)Nc2ccc3nc(C)ccc3c2)cc1 | > 64 µM (inactive)
O=C(Nc1ccc(SC(F)F)cc1)c1ccccc1F | > 64 µM (inactive)
CC(C)c1ccc(C(=O)Nc2ccc(CN3CCOCC3)cc2)cc1 | > 64 µM (inactive)
Clc1ccc(C=Cc2ccccn2)c(Cl)c1 | 22.9 µM
O=C(/C=C/c1ccc(Cl)cc1)Nc1ccc(CN2CCOCC2)cc1 | > 64 µM (inactive)
C=CCSc1ncc(-c2ccccc2)cn1 | > 64 µM (inactive)
Fc1ccc(CSc2ncnc3ccccc23)cc1 | > 64 µM (inactive)
Clc1ccc(OCCCc2nc(-c3ccncc3)no2)c(Cl)c1 | > 64 µM (inactive)
CCN(CC)Cc1ccc(NC(=O)c2sc3cc(Cl)ccc3c2Cl)cc1 | > 64 µM (inactive)
Brc1ccc2nc(N3CCCC3)sc2c1 | > 64 µM (inactive)
Clc1ccc(OCc2cnc(Cl)s2)cc1 | > 64 µM (inactive)
Fc1ccc(COc2ccc(-c3nnco3)cc2)cc1 | > 64 µM (inactive)
COc1cc(CNC(C)c2ccccc2)cc(Br)c1OCc1ccc(F)cc1 (centres undefined) | > 64 µM (inactive)
Brc1ccc2oc(-c3ccn[nH]3)cc2c1 | > 64 µM (inactive)
Clc1ccc(Cn2nnc(-c3ccccc3)n2)cc1 | > 64 µM (inactive)
Clc1ccccc1-c1nc(-c2ccncc2)no1 | > 64 µM (inactive)
O=C(Nc1nccs1)c1ccc2ccccc2n1 | > 64 µM (inactive)
O=C(/C=C/Nc1ccccc1F)c1cccs1 | > 64 µM (inactive)
Clc1ccsc1-c1ccc2ccccc2n1 | > 64 µM (inactive)
c1ccc(-c2csc(-c3ccncc3)n2)cc1 | > 64 µM (inactive)
O=C(/C=C/c1cccs1)c1ccc(Br)cc1 | > 64 µM (inactive)
Cc1ccccc1-c1noc(-c2cccs2)n1 | > 64 µM (inactive)
O=C(Nc1nccs1)c1ccc2ccccc2c1 | > 64 µM (inactive)
CCOc1cc(CNC2CCCC2)cc(Cl)c1OCc1ccc(F)cc1 | > 64 µM (inactive)
CN(C)CC(O)c1ccc(C=Cc2ccc(Cl)cc2)cc1 (centres undefined) | > 64 µM (inactive)
